In ChEMBL document CHEMBL1201862, “PubChem BioAssay data set” (2004):
Activity calls are given as the source filed them.

What was measured:
[1] = viability loss in HEK293 cells – cell-based, plate reader, cherry-picked samples, cytotoxicity control, dose response (AID 743446); format: functional
[2] = toxicity toward HepG2 liver cells – cell-based, plate reader, cherry-pick, antagonist series, cytotoxicity control, dose response (AID 743416); format: functional
[3] = blockers of bursicon-stimulated LGR2 cAMP reporter – cell-based, HEK293, CRE-luciferase reporter, cherry pick, set 2, dose response (AID 743343); format: functional;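 further: transfected cells were stimulated with diluted bursicon conditioned medium after compound addition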
[4] = A549 cell cytotoxicity, dose response, cytotoxicity control, plate reader, cherry-pick, antagonist series (AID 743412); format: functional, cell-based
[5] = tested on: INS1; test: INS-1E survival protection against cytokine death – cell-based, luminescence, retest, dose response (AID 449756); format: functional; conditions: Rattus norvegicus;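 further: cell death triggered by IL-1 beta plus TNF-alpha plus IFN-gamma mixture; protective hits raise ATP signal compared with cytokine alone wells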
[6] = cells; format: functional, cell-based
[7] = target: T1, Trace amine-associated receptor 1 (Homo sapiens, UniProt Q96RJ0); test: Fluorescence-based cell-based high throughput dose response assay to identify agonists of the human trace amine associated receptor 1 (TAAR1).; format: functional
T1 sequence (Q96RJ0 whole entry): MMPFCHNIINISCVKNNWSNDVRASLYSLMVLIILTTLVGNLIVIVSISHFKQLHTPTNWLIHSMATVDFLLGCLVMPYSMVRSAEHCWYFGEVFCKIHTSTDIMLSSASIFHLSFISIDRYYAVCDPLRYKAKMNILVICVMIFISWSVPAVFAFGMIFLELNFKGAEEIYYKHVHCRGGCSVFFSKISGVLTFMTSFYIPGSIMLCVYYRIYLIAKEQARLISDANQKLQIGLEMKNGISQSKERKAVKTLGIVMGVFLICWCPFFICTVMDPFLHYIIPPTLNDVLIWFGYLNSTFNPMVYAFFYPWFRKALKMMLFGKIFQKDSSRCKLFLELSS

[8] = target: T1, Trace amine-associated receptor 1; test: Counterscreen for agonists of the human trace amine associated receptor 1 (hTAAR1): Fluorescence-based cell-based high throughput dose response assay to identify hTAAR1 agonist that also desensitize TAAR1 receptor response.; format: functional
[9] = cells; format: functional, cell-based; remark: listed apart in the source
[10] = cells; format: functional, cell-based; remark: listed apart in the source
[11] = tested on: HEK293; test: EBV LMP1 TES2 canonical NF-kB signalling blockers – cell-based, HEK293, luciferase, cherry-pick, dose response (AID 588343); format: functional; conditions: Homo sapiens
[12] = target: T2, Nuclear receptor subfamily 0 group B member 1 (Homo sapiens, UniProt P51843); format: functional, cell-based;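 further: HEK293T cells transfected with SF-1 and DAX-1 plus StAR promoter luciferase reporter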
T2 sequence (P51843 whole entry): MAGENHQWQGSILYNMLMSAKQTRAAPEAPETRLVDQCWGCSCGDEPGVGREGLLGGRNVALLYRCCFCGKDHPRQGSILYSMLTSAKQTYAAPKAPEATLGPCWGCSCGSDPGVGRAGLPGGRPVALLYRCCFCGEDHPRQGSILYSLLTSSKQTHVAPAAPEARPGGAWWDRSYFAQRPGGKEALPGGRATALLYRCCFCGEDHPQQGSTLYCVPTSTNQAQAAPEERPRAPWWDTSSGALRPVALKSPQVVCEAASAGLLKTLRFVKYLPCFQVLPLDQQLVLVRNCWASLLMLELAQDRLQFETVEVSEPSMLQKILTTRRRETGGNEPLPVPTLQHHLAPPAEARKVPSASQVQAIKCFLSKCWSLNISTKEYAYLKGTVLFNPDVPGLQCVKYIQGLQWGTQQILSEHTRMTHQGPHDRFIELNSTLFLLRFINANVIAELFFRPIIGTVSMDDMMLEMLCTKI

[13] = off-target signal loss in HeLa-CEM21 co-culture – HeLa F-luc CTL cells, cherry-picked, counter-screen for HIV-1 Env fusion inhibitor project, dose response (AID 652040); format: functional, cell-based;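 further: potency for signal decrease marking cytotoxic or nonspecific inhibition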
[14] = target: T3, Microphthalmia-associated transcription factor (Homo sapiens, UniProt O75030); test: reducers of TRPM1 reporter luminescence, concentration series – cell-based, SK-MEL-5, cherry-picked, set 3, MITF inhibitor project, dose response (AID 493073); format: functional;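 further: SK-MEL-5 melanoma cells with luciferase driven by the MITF target TRPM1 promoter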
T3 sequence (O75030 whole entry): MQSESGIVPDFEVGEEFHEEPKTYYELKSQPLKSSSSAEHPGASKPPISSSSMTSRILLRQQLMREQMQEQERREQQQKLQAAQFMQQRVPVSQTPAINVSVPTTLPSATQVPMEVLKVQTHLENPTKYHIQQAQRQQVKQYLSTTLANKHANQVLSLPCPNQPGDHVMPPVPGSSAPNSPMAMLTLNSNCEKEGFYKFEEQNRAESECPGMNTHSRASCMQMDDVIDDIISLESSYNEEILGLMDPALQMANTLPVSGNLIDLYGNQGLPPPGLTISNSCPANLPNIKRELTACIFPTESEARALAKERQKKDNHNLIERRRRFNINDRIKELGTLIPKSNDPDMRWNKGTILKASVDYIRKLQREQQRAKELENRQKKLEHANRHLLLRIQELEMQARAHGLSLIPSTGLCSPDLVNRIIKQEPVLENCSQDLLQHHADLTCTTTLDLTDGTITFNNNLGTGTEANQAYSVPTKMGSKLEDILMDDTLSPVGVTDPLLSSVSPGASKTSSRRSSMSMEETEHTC

[15] = HIV-1 AD8 envelope cell-cell fusion blockers – cherry-pick, dose response (AID 652062); format: functional, cell-based;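 further: luciferase signal from cell-cell fusion driven by HIV-1 clade B AD8 Env; potency is for inhibitors of fusion seen as a drop in luminescence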
[16] = blockers of HIV-1 ZM109 envelope-driven cell-cell fusion – HeLa effector, CEM target cells, luciferase, cherry-pick, dose response (AID 652058); format: functional, cell-based;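 further: luciferase signal from HIV-1 Env mediated cell-cell fusion of effector and target cells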
[17] = HEK-293T viability loss after treatment – luminescence, T-cell screen hits, cytotoxicity control for TCR NF-kB inhibitor project, dose response (AID 489026); format: functional, cell-based;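 further: cells exposed to compound about 14 hours before the viability readout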
[18] = blockers of HIV-1 envelope-mediated cell-cell fusion – cherry-pick, dose response (AID 652057); format: functional, cell-based
[19] = blockade of melanocortin 4 receptor signaling – cell-based, plate reader, cherry pick, counter-screen for LGR2 antagonist project, dose response (AID 743444); format: functional;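 further: transfected HEK 293 cells stimulated with alpha-MSH peptide; potency of inhibitors of the alpha-MSH evoked signal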
[20] = tested on: HEK293; test: cells; conditions: Homo sapiens
[21] = tested on: HEK293; test: cells; conditions: Homo sapiens; remark: listed apart in the source
[22] = viability loss in CEM21 cells – cell-based, CellTiter-Glo luminescence, cherry-picked, cytotoxicity control for viral fusion inhibitor project, dose response (AID 652042); format: functional;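 further: potency for signal decrease meaning cytotoxicity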
[23] = target: Tyrosyl-DNA phosphodiesterase 2 (Homo sapiens, UniProt O95551); test: potency against TDP2 phosphodiesterase activity – biochemical, epi absorbance, IC50, dose response (AID 743297)
[24] = viability loss in HEK293 kidney cells – cell-based, cherry-picks, set 5, cytotoxicity control, dose response (AID 1053117); format: functional
[25] = target: 1-phosphatidylinositol 4,5-bisphosphate phosphodiesterase gamma-1 (Homo sapiens, UniProt P19174); test: Counterscreen for inhibitors of phospholipase C isozymes (PLC-B3): Fluorescence-based biochemical high throughput dose response assay to identify inhibitors of phospholipase C isozymes (PLC-gamma1).
[26] = target: 1-phosphatidylinositol 4,5-bisphosphate phosphodiesterase beta-3 (Homo sapiens, UniProt Q01970); test: Fluorescence-based biochemical high throughput dose response assay to identify inhibitors of phospholipase C isozymes (PLC-B3).
[27] = target: Fructose-bisphosphate aldolase (Mycobacterium tuberculosis, UniProt P9WQA3); test: Fluorescence-based biochemical high throughput dose response assay for inhibitors of the fructose-bisphosphate aldolase (FBA) of M. tuberculosis.; format: functional
[28] = target: T4, Zinc finger protein mex-5 (Caenorhabditis elegans, UniProt Q9XUB2); test: potency of MEX-5 RNA-binding blockers – biochemical, C. elegans, fluorescence polarization, dose response (AID 1960)
T4 sequence (Q9XUB2 whole entry): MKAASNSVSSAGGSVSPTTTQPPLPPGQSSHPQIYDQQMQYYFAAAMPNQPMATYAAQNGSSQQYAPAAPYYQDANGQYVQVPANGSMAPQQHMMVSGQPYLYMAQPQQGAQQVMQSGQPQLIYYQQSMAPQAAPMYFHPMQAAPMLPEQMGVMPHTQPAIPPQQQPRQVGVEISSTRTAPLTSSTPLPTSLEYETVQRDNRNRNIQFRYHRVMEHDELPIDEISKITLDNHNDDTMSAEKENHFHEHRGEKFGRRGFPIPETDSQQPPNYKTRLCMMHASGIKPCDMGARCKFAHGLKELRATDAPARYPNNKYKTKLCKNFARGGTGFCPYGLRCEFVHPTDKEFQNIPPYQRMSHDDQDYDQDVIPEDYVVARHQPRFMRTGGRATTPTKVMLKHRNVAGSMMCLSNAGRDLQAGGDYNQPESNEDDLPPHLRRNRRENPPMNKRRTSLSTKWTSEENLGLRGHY

[29] = target: T5, RNA-binding protein pos-1 (Caenorhabditis elegans, UniProt G5EF15); test: disruptors of C. elegans POS-1 RNA interaction – biochemical, fluorescence polarization, dose response (AID 1964);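 further: purified POS-1 fused to maltose binding protein made in E. coli; potency of compounds blocking POS-1 binding to fluorescent RNA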
T5 sequence (G5EF15 whole entry): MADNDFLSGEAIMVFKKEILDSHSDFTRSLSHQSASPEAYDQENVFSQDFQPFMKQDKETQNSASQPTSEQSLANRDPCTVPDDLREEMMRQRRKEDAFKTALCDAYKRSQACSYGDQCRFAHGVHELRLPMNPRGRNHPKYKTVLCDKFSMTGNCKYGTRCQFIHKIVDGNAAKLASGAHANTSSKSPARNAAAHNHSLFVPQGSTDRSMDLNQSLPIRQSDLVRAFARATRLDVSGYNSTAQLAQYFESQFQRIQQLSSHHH

[30] = cells; conditions: A549
[31] = potency of ADAM10 substrate cleavage blockers – biochemical, QFRET, dose response (AID 743254);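 further: ADAM10 enzyme with the DM2 quenched FRET peptide as substrate; EDANS fluorescence gain as the protease cuts the substrate; inhibitor potency against ADAM10 proteolytic activity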
[32] = target: Disintegrin and metalloproteinase domain-containing protein 17 (Homo sapiens, UniProt P78536); test: inhibition of ADAM17 substrate cleavage – biochemical, quenched FRET substrate, counter-screen for ADAM10 exosite inhibitor project, dose response (AID 743253)
[33] = T. cruzi growth inhibition in host cells, dose response, cell-based, plate reader, dry powder, set 2 (AID 652275); format: functional
[34] = target: Large T antigen (Simian virus 40, UniProt P03070); format: functional, Betapolyomavirus macacae;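 further: Confirmatory-stage PubChem screen for compounds that inhibit SV40 T antigen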
Large T antigen, sequence (P03070 whole entry): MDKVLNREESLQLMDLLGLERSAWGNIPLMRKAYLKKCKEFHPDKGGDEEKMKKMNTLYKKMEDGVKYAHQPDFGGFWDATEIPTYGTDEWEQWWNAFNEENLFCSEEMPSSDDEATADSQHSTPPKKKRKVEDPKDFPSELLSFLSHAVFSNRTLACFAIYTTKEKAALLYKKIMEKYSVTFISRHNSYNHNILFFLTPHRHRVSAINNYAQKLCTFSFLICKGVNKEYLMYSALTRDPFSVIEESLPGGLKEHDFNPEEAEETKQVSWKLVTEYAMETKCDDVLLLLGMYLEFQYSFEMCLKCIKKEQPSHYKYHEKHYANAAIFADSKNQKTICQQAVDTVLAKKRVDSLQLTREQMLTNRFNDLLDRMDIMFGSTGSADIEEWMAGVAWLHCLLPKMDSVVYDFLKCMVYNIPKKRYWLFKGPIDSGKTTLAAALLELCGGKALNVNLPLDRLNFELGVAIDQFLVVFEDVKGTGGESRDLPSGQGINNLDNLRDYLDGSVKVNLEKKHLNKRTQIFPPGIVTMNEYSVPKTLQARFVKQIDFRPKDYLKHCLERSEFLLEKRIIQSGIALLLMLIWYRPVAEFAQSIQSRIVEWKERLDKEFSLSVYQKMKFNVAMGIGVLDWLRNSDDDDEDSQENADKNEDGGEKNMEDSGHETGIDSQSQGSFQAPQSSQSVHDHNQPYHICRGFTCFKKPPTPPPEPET

Fructose-bisphosphate aldolase, sequence (P9WQA3 whole entry): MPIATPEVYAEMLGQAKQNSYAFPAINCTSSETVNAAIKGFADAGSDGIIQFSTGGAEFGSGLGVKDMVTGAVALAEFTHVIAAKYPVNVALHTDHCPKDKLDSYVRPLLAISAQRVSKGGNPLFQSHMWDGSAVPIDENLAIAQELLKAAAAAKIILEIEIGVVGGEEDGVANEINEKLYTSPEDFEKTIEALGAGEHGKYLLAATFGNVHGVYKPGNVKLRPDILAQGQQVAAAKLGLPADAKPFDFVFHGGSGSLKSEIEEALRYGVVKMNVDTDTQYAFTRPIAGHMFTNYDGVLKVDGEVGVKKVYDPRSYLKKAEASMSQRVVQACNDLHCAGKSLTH
1-phosphatidylinositol 4,5-bisphosphate phosphodiesterase gamma-1, sequence (P19174 whole entry): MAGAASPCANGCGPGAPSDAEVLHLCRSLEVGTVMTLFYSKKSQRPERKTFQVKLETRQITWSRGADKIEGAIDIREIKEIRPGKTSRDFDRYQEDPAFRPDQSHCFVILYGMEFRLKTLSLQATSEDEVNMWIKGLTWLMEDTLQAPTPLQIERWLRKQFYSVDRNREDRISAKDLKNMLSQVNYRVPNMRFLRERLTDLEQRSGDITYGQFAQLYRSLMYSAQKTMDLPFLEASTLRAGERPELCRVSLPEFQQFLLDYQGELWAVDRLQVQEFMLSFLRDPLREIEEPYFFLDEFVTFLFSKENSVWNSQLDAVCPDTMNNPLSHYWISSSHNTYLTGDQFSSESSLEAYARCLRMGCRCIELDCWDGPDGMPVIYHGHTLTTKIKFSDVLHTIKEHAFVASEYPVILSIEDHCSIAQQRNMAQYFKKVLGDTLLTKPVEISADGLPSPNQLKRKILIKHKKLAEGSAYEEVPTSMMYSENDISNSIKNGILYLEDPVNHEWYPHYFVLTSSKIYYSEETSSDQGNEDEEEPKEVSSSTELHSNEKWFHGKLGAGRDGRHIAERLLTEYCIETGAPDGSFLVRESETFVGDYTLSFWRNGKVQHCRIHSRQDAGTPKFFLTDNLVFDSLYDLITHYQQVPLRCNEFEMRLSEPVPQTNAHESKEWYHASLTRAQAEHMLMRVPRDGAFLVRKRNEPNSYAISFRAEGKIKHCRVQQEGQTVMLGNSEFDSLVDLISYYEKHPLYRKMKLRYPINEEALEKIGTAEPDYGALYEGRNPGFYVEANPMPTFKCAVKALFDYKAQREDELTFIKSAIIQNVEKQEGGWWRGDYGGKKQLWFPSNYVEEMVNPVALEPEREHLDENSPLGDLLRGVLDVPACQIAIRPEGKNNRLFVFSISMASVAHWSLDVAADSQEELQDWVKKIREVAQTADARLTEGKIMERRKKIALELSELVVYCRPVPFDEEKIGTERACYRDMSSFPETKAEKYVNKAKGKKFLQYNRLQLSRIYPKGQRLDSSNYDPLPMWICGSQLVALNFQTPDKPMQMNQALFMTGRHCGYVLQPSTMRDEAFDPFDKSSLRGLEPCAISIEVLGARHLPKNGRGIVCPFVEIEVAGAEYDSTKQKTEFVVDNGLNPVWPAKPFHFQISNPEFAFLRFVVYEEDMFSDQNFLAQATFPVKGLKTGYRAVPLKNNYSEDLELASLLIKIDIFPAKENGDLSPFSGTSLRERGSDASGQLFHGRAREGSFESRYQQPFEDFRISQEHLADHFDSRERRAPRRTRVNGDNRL
1-phosphatidylinositol 4,5-bisphosphate phosphodiesterase beta-3, sequence (Q01970 whole entry): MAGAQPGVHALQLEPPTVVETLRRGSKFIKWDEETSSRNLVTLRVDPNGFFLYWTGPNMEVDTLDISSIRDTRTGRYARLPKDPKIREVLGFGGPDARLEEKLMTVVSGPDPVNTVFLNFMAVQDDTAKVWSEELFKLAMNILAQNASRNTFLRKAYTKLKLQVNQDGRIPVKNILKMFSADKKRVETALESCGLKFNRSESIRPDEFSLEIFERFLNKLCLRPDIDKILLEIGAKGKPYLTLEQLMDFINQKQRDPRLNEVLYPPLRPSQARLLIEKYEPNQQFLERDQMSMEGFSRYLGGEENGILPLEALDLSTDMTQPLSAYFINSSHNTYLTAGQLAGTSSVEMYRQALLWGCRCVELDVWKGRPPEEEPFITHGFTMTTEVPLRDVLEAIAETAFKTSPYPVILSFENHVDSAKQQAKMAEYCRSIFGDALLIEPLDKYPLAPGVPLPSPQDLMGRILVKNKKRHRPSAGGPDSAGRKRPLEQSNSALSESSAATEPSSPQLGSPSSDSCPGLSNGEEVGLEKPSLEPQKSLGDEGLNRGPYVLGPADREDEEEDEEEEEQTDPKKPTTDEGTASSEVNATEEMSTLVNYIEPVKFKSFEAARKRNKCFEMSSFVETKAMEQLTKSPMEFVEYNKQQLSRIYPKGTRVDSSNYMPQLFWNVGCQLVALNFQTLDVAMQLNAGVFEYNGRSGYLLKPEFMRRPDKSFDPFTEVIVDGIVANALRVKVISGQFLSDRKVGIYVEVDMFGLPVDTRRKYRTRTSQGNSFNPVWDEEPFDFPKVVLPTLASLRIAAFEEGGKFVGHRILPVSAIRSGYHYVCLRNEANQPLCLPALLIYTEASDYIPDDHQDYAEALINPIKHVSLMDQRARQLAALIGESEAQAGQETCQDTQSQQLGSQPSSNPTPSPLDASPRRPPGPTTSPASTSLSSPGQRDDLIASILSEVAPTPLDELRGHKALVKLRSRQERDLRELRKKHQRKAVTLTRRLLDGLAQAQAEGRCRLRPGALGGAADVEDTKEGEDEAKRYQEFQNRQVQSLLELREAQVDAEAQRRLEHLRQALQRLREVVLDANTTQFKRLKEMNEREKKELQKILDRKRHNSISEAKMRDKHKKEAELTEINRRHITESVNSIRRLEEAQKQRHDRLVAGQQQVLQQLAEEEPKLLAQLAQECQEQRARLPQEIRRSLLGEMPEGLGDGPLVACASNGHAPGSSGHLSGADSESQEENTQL
Tyrosyl-DNA phosphodiesterase 2, sequence (O95551 whole entry): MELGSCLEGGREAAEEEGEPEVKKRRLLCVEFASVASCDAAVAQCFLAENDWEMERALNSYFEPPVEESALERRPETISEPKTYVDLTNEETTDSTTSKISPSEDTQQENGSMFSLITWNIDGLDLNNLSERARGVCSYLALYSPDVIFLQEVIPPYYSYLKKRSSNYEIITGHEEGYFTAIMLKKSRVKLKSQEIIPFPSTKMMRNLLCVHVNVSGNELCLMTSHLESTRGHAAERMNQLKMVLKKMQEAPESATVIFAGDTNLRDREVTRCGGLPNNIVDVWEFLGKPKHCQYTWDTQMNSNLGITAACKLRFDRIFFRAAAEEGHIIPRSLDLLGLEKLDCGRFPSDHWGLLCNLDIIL
Disintegrin and metalloproteinase domain-containing protein 17, sequence (P78536 whole entry, the tested form may be a part): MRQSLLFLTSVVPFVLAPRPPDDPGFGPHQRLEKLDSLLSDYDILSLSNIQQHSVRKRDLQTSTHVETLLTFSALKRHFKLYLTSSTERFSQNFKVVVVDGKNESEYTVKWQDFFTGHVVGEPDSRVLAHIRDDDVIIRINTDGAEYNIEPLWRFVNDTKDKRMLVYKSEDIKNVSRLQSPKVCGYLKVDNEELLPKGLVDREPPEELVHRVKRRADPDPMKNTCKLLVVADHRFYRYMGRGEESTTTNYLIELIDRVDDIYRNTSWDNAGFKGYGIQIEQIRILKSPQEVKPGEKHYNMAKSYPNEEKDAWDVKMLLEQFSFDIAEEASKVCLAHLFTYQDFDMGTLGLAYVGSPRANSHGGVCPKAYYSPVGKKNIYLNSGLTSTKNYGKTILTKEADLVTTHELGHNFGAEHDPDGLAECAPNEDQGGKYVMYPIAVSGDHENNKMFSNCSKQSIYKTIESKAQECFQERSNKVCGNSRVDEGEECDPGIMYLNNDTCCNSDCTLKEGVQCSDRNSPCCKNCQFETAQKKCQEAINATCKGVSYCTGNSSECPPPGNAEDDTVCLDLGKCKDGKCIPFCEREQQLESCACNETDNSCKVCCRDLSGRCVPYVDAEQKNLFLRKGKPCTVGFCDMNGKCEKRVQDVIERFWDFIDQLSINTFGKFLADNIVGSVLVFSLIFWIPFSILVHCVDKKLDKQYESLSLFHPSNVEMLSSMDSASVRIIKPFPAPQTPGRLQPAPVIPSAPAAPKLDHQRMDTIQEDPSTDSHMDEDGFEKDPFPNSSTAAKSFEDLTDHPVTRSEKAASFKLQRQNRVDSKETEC

SMILES: CC(=O)c1ccc(Nc2cc(C)nc3c(C)cc(C)cc23)cc1
- AC50 [1]: 23.9 µM (active)
- AC50 [2]: 1.9 µM (active)
- AC50 [3]: 40.3 µM (active)
- AC50 [4]: 2.54 µM (active)
- AC50 [5]: 5.22 µM (active)

SMILES: COc1ccc2cc(CN(CCc3ccccc3)Cc3nnnn3CC3CCCO3)c(O)nc2c1 (stereo unspecified)
- IC50 [6]: > 29.9 µM (inactive)
- EC50 [7]: 4.42 µM (active)
- IC50 [8]: 8.83 µM (active)
- EC50 [9]: > 29.9 µM (inactive)

SMILES: Cc1ccc(NC(=O)C(=O)Nc2ccccn2)cc1
- IC50 [10]: > 67.6 µM (inactive)
- AC50 [11]: 2.59 µM (active)
- IC50 [12]: > 67.6 µM (inactive)

SMILES: CCn1c(C)cc(C(=O)CN2C(=O)c3ccccc3S2(=O)=O)c1C
- AC50 [13]: 4.71 µM (active)
- AC50 [3]: 1.46 µM (active)
- AC50 [14]: 1.99 µM (active)
- AC50 [15]: 0.358 µM (active)
- AC50 [16]: 7.25 µM (active)
- IC50 [17]: > 80 µM (inactive)
- AC50 [18]: 2.09 µM (active)
- AC50 [19]: 1.16 µM (active)

SMILES: CC(=O)Nc1ccc(N(CC(O)Cn2c3ccccc3c3ccccc32)S(=O)(=O)c2ccc(C)cc2)cc1 (stereo unspecified)
- AC50 [13]: 1.6 µM (active)
- EC50 [20]: > 59.7 µM (inactive)
- EC50 [21]: > 59.7 µM (inactive)
- AC50 [15]: 2.8 µM (active)
- AC50 [16]: 0.558 µM (active)
- AC50 [18]: 0.507 µM (active)
- AC50 [22]: 28.4 µM (active)

SMILES: COC1=C(N2CCOCC2)C(=O)c2ccccc2C1=O
- IC50 [23]: 77.2 µM (inactive)

SMILES: C=CCC[C@H](Cc1ccc(F)cc1)C(=O)OC[C@H](Cc1c[nH]c2ccccc12)NC(=O)[C@@H](CC=C)CC(=O)N[C@@H](CO)Cc1ccccc1
- AC50 [24]: > 52 µM (inactive)

SMILES: COc1ccccc1COC(=O)c1cccc(S(=O)(=O)N2CCCC2)c1
- IC50 [25]: > 123 µM (inactive)
- IC50 [26]: > 123 µM (inactive)

SMILES: OCC1OC(n2ccc3c(NO)ncnc32)C(O)C1O (stereo unspecified)
- AC50 [13]: 2.65 µM (active)
- AC50 [15]: 4.53 µM (active)
- AC50 [16]: 2.44 µM (active)
- AC50 [18]: 2.35 µM (active)
- AC50 [22]: 0.641 µM (active)

SMILES: Cc1c(C)c2cc(Cl)c(OCC(=O)NCCCN3CCCC3=O)cc2oc1=O
- IC50 [27]: 3.71 µM (active)

SMILES: COc1ccc(NC(=O)C2(C)Cc3c(-c4ccc(N(C)C)cc4)ccnc3O2)cc1OC (stereo unspecified)
- IC50 [27]: 0.731 µM (active)

SMILES: O=C1c2ccccc2S(=O)(=O)c2cc(N3CCC(C(=O)N4CCCCC4)CC3)ccc21
- EC50 [28]: > 300 µM (not active)
- EC50 [29]: > 300 µM (not active)
- AC50 [30]: > 52 µM (inactive)

SMILES: CN1C(=O)c2cc(NS(=O)(=O)c3ccc(F)cc3)ccc2OC[C@H]2O[C@@H](CC(=O)NCC(F)(F)F)CC[C@@H]21
- IC50 [31]: > 69.6 µM (inactive)
- IC50 [25]: 45.1 µM (inactive)
- IC50 [32]: > 69.6 µM (inactive)
- IC50 [26]: 47.2 µM (inactive)

SMILES: CC(C)N1C[C@H](CNCc2ccc(Cl)cc2)Oc2c(NC(=O)c3ccncc3)cccc2C1=O
- AC50 [33]: 0.731 µM (active)

SMILES: Oc1ccc(/C=N\Nc2cnnc(O)c2Cl)c(O)c1
- IC50 [6]: > 29.9 µM (inactive)
- EC50 [7]: 1.16 µM (active)
- IC50 [8]: 24.5 µM (inactive)
- EC50 [9]: > 29.9 µM (inactive)
- IC50 [34]: 15.7 µM (active)
